Values joined by “and” are separate entries in the source; they are usually repeats but may differ in a detail not shown here. Equal entries are not always repeated. Values belong to the compound of their own block, whether it stands above or below them.
Tests used:
Adenosine receptor A2a [1] = target: T1, Adenosine receptor A2a (Rattus norvegicus, UniProt P30543)
Description: (§1) Displacement [3H]-CGS-21,680 from Adenosine A2A receptor in rat striatal membrane.

Adenosine receptor A1 = target: T2, Adenosine receptor A1 (Rattus norvegicus, UniProt P25099); test: Tested for the displacement [3H]PIA from Adenosine A1 receptor in rat brain membrane; format: cell membranes
T2 sequence (P25099 whole entry): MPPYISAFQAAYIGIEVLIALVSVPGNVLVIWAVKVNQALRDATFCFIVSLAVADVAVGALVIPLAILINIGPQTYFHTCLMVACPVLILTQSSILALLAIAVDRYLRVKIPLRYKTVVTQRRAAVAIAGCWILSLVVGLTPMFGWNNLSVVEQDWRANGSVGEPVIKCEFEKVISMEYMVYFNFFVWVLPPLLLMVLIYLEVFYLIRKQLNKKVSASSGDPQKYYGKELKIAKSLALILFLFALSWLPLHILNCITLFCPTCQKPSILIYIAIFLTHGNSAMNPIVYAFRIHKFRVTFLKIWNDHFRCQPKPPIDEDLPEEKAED

Adenosine receptor A3 [2] = target: T3, Adenosine receptor A3 (Rattus norvegicus, UniProt P28647); test: Displacement of [125I]AB-MECA from rat Adenosine A3 receptor expressed in CHO cell membrane; format: cell membranes
T3 sequence (P28647 whole entry): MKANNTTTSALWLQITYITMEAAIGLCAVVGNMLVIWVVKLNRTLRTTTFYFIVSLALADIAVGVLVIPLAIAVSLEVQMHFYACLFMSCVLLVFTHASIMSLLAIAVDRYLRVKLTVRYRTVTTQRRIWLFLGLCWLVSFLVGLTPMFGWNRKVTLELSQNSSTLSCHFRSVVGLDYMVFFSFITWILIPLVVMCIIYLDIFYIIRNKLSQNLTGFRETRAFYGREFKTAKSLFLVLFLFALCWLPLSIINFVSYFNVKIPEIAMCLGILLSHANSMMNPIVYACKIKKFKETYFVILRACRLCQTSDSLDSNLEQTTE

[3] = target: Adenosine receptors; A1 & A2a (Rattus norvegicus) (UniProt P25099+P30543); test: Selectivity for adenosine A2a and A1 receptors; format: protein assay
[4] = target: Adenosine A1 receptor (Rattus norvegicus) (UniProt P25099); test: Selectivity for rat adenosine A3 and rat adenosine A1 receptors
[5] = target: Adenosine receptor A2a (Rattus norvegicus) (UniProt P30543); test: Displacement [3H]CGS-21680 from Adenosine A2A receptor in rat striatal membrane; format: cell membranes; set-up: concentration or dose not given beside the values; conditions: Striatum, concentration not given here
[6] = target: T4, Adenosine receptor A1 (Rattus norvegicus) (UniProt P25099); test: Displacement of [3H]PIA from Adenosine A1 receptor of rat brain membrane at 10e-4 M
T4 sequence (whole entry): T2 sequence (P25099 whole entry)

Adenosine receptor A3 [7] = target: T5, Adenosine receptor A3 (Homo sapiens, UniProt P0DMS8); test: Displacement of [125I]AB-MECA from human Adenosine A3 receptor expressed in HEK293 cell membrane; format: cell membranes
T5 sequence (P0DMS8 whole entry): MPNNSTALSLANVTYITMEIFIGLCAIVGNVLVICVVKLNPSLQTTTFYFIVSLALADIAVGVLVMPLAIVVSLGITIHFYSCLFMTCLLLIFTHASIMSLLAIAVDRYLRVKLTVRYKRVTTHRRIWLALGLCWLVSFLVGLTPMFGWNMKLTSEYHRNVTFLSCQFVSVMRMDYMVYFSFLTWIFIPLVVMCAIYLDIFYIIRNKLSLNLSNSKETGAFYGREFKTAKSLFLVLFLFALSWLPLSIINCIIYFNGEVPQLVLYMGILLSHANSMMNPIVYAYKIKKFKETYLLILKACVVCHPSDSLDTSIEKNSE

[8] = target: T6, Adenosine receptor A3 (Homo sapiens) (UniProt P0DMS8); test: Displacement of [125I]AB-MECA from human Adenosine A3 receptor expressed in HEK293 cell membrane at 10e-4 M; format: cell membranes
T6 sequence (whole entry): T5 sequence (P0DMS8 whole entry)

Adenosine receptor A2a [9] = target: T1, Adenosine receptor A2a; remark: listed apart in the source
Description: as §1

Chain of Adenosine receptors; A1 & A2a (Rattus norvegicus) (P30543 whole entry, looked up, one chain of several): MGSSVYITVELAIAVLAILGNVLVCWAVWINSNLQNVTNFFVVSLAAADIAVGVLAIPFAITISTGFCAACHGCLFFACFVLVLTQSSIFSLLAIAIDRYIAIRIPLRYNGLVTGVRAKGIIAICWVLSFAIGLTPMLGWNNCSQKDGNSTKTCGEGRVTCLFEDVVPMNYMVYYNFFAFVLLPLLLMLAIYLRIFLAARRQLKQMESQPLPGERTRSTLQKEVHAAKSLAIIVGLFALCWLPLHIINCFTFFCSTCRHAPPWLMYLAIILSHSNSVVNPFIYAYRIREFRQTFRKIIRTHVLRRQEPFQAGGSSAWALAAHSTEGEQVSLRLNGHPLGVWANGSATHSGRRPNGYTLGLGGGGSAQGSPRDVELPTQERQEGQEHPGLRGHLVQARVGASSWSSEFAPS
Chain of Adenosine receptor A2a (Rattus norvegicus) (P30543 whole entry): as the sequence (P30543 whole entry, looked up, one chain of several) above
T1 sequence (P30543 whole entry): as the sequence (P30543 whole entry, looked up, one chain of several) above

Structure (SMILES): Nc1nc2ccc(Cl)cc2n2c(-c3ccccc3)nnc12
Ki (Adenosine receptor A2a [1]): 0.021 µM

Structure (SMILES): CCOC(=O)c1sc(SCc2ccccc2)c2c1CC(C)(C)CC2=O
Ki (Adenosine receptor A1): 0.567 µM
inhibition [5]: 34%
Selectivity [3]: > 17.6

Structure (SMILES): CCOC(=O)c1sc(SC)c2c1CCCC2O (stereo not drawn)
Ki (Adenosine receptor A2a [1]): 33.5 µM
Ki (Adenosine receptor A1): 18.3 µM
Ki (Adenosine receptor A3 [2]): 15.4 µM
Selectivity [3]: 1.8
Selectivity [4]: 0.84
Ki (Adenosine receptor A3 [7]): 35.8 µM

Structure (SMILES): COc1cc(-c2oc3c(OC)cc(CCCO)cc3c2C=O)ccc1O
Ki (Adenosine receptor A1): 0.017 µM

Structure (SMILES): Nc1nc2ccccc2n2cc(-c3ccccc3)nc12
Ki (Adenosine receptor A2a [1]): 0.29 µM
Ki (Adenosine receptor A1): 0.034 µM

Structure (SMILES): CCOC(=O)c1sc(SC(C)CC)c2c1CC(C)(C)CC2=O (stereo not drawn)
Ki (Adenosine receptor A2a [1]): 106 µM
Ki (Adenosine receptor A1): 3.64 µM
Selectivity [3]: 29.1

Structure (SMILES): CCOC(=O)c1sc(S(C)(=O)=O)c2c1CC(C)(C)CC2=O
Ki (Adenosine receptor A1): 32.7 µM
Ki (Adenosine receptor A3 [2]): 51.8 µM
inhibition [5]: 13%
Selectivity [3]: > 3.1
Selectivity [4]: 1.58

Structure (SMILES): Nc1nc2ccc(Cl)cc2c2nc(-c3ccco3)nn12 [CGS-15943]
Ki (Adenosine receptor A2a [1]): 3.3 µM

Structure (SMILES): CCOC(=O)c1sc(SCC)c2c1CC(C)(C)CC2=O
Ki (Adenosine receptor A2a [1]): 23.9 µM

Structure (SMILES): O=c1c(-c2ccc(O)cc2)coc2cc(O)cc(O)c12 [GENISTEIN]
Ki (Adenosine receptor A2a [1]): 36 µM

More lines, now with the values ahead:

Ki (Adenosine receptor A2a [1]): 3.66 µM
Ki (Adenosine receptor A1): 1.93 µM
Ki (Adenosine receptor A3 [2]): 15.2 µM
Selectivity [3]: 1.9
Selectivity [4]: 7.88
Structure (SMILES): CCOC(=O)c1sc(SC)c2c1CCCC2=O

Ki (Adenosine receptor A2a [1]): 6.04 µM
Ki (Adenosine receptor A1): 1.06 µM
Selectivity [3]: 5.7
Structure (SMILES): C=CCSc1sc(C(=O)OCC)c2c1C(=O)CCC2

Ki (Adenosine receptor A1): 71.2 µM
inhibition [5]: 28.9%
Selectivity [3]: > 1.4
Structure (SMILES): CSc1sc(C(=O)NN)c2c1C(O)CCC2 (stereo not drawn)

Ki (Adenosine receptor A2a [1]): 4.69 µM
Ki (Adenosine receptor A1): 1.26 µM
Selectivity [3]: 3.7
Structure (SMILES): CCCSc1sc(C(=O)OCC)c2c1C(=O)CCC2

inhibition [6]: 28%
inhibition [5]: < 10%
Selectivity [3]: > 1
Structure (SMILES): CSc1scc2c1C(=O)CCC2

inhibition [8]: 24%
Ki (Adenosine receptor A2a [9]): 1.36 µM
Ki (Adenosine receptor A2a [1]): 1.36 µM
Ki (Adenosine receptor A1): 0.72 µM and 0.715 µM
Selectivity [3]: 1.9
Structure (SMILES): CCOC(=O)c1sc(SCc2ccccc2)c2c1CCCC2=O

Ki (Adenosine receptor A2a [1]): 15.2 µM
Ki (Adenosine receptor A1): 50 µM
Ki (Adenosine receptor A3 [2]): 42 µM
Selectivity [3]: 0.3
Ki (Adenosine receptor A3 [7]): 117 µM
Structure (SMILES): O=C(O)c1sc(SCc2ccccc2)c2c1CCCC2=O

Ki (Adenosine receptor A2a [1]): 36.1 µM
Ki (Adenosine receptor A1): 17.5 µM
Selectivity [3]: 2.1
Structure (SMILES): CCOC(=O)c1sc(NN)c2c1CCCC2=O

Ki (Adenosine receptor A2a [1]): 4.63 µM
Ki (Adenosine receptor A1): 1.79 µM
Selectivity [3]: 2.6
Structure (SMILES): CCOC(=O)c1sc(SC(C)C)c2c1CCCC2=O

Ki (Adenosine receptor A1): 51.6 µM
Ki (Adenosine receptor A3 [2]): 13.1 µM
inhibition [5]: < 10%
Selectivity [3]: > 1.9
Selectivity [4]: 0.25
Structure (SMILES): CSc1sc(C(=O)NN)c2c1C=CCC2

Ki (Adenosine receptor A2a [1]): 25.6 µM
Ki (Adenosine receptor A1): 2.22 µM
Ki (Adenosine receptor A3 [2]): 10.2 µM
Selectivity [3]: 11.5
Selectivity [4]: 4.59
Structure (SMILES): CCOC(=O)CSc1sc(C(=O)OCC)c2c1C(=O)CCC2

Ki (Adenosine receptor A1): 69.8 µM
inhibition [5]: 22%
Selectivity [3]: > 1.4
Structure (SMILES): CCOC(=O)c1sc(SC)c2c1CCC/C2=N/OC

Ki (Adenosine receptor A2a [1]): 15.6 µM
Ki (Adenosine receptor A1): 1.42 µM
Selectivity [3]: 11
Structure (SMILES): CCCCSc1sc(C(=O)OCC)c2c1C(=O)CCC2

— ChEMBL document CHEMBL1129657, “Tetrahydrobenzothiophenone derivatives as a novel class of adenosine receptor antagonists” (J Med Chem, 1996)
